Target: T1, CCR7 (Mus musculus, UniProt P47774)
T1 construct: confirm that hits identified in the HTS were active against native CCR7; endogenous in cells; host or cells: primary naive (CD25neg) T cells from C57BL/6 mice
T1 sequence (P47774 25-378): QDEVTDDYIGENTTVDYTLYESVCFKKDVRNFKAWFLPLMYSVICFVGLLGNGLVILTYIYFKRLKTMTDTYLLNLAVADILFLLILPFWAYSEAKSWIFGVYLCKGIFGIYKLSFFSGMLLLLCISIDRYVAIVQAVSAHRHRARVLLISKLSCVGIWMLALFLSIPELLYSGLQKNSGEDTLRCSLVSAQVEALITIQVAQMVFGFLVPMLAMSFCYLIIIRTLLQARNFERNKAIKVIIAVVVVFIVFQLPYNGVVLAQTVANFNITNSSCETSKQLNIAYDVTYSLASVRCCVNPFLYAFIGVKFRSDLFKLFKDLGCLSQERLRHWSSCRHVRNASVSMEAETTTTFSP
Test: Trans-well chemotaxis assay, primary murine T cells
Type: cell-based
Procedure: FIGS. 1A-1D show cosalane impairs CCR7 driven human and murine chemotaxis. (A, B) Chemotaxis media with or without CCL19 (A) or CCL21 (B) was added to the lower chambers of the chemotaxis device. Previously untreated H9 cells were then placed in the upper chambers of the device with or without cosalane at a concentration of 2 μM. The chamber was then placed at 37° C. for 3.5 hours and total H9 migration from each upper to lower chamber determined. (A) *P=0.048 for comparison between H9 cells/30 nM CCL19 and H9 cells/30 nM CCL19/2 μM cosalane by Student's t test. (B) P>0.05 for comparison between H9 cells/200 nM CCL21 and H9 cells/200 nM CCL21/2 μM cosalane. (C, D) Chemotaxis media with or without CCL19 (C) or CCL21 (D) was added to the lower chambers of the chemotaxis device. Previously untreated primary murine T cells were then placed in the upper chambers of the device with or without cosalane at a concentration of 2 μM. Total T cell migration from each upper to lower chamber was then determined. (C) *P=0.029. (D) *P<0.001.
While useful from a screening perspective, our primary reporter assays for the HTS were not physiologic. As a result, it was important to confirm that hits identified in the HTS were active against native CCR7 and could block an actual function mediated by the receptor. For this, we used a well-described trans-well chemotaxis assay system using human H9 cells, a cutaneous T cell lymphoma line known to express high levels of CCR7 and to migrate in response to its ligands (Ott et al., J. Pharmacol. Toxicol. Meth. 51:105 (2005)). In addition, we utilized primary mouse, naïve (CD25^neg) T cells obtained from C57BL/6 mice. As depicted in FIG. 1A, human H9 cells placed in the upper chambers of the chemotaxis device readily migrated through the separating membrane when CCL19 was present in the lower chamber. […] Similarly, murine T cell chemotaxis was also impaired by cosalane in response to both CCL19 and CCL21 (FIGS. 1C-1D).
To evaluate this possibility, human H9 cells were incubated with 10 mcg/ml (13 μM) of cosalane versus DMSO vehicle for one hour and then washed free of the compound. The cells were then placed into the chemotaxis chamber as was done in FIGS. 1A-1D. […] Similar experiments were performed with naïve primary mouse T cells.

[1] = 10 mcg/ml (13 μM), then washed, vs DMSO

SMILES: CC(C)CCC[C@@H](C)[C@H]1CC[C@H]2[C@@H]3CC[C@H]4C[C@@H](CCC=C(c5cc(Cl)c(O)c(C(=O)O)c5)c5cc(Cl)c(O)c(C(=O)O)c5)CC[C@]4(C)[C@H]3CC[C@]12C [Cosalane, cosalane]
- murine T cell chemotaxis in response to CCL19 (2 μM cosalane in upper chamber): impaired
- murine T cell chemotaxis in response to CCL21 (2 μM cosalane in upper chamber): impaired
- primary murine T cell chemotaxis in response to CCL19 after pretreatment [1]: significantly reduced
- primary murine T cell chemotaxis in response to CCL21 after pretreatment [1]: significantly reduced
